Laboratory results from PubChem BioAssay (NCI).
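In this assay, cells in 96-well plates receive the compound at five concentrations for 48 hours. Endpoints are linearly interpolated between the surrounding concentrations. TGI: total growth inhibition.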

Experiments:
Assay in all cases: NCI anticancer screen, dose series, 48 h
ACHN renal = tested on: ACHN renal
KM12 colon = tested on: KM12 colon
HOP-62 NSCLC = tested on: HOP-62 NSCLC
TK-10 renal = tested on: TK-10 renal
EKVX NSCLC = tested on: EKVX NSCLC
UACC-62 melanoma = tested on: UACC-62 melanoma
OVCAR-4 ovarian = tested on: OVCAR-4 ovarian
SF-268 CNS = tested on: SF-268 CNS
SF-295 CNS = tested on: SF-295 CNS
LOX IMVI melanoma = tested on: LOX IMVI melanoma

| SMILES | TGI (ACHN renal) [µM] | TGI (KM12 colon) [µM] | TGI (HOP-62 NSCLC) [µM] | TGI (TK-10 renal) [µM] | TGI (EKVX NSCLC) [µM] | TGI (UACC-62 melanoma) [µM] | TGI (OVCAR-4 ovarian) [µM] | TGI (SF-268 CNS) [µM] | TGI (SF-295 CNS) [µM] | TGI (LOX IMVI melanoma) [µM] |
| --- | --- | --- | --- | --- | --- | --- | --- | --- | --- | --- |
| CC1=C2C(=C[C@H]3[C@]4(C)CCCC(C)(C)[C@H]4CC[C@]34O[C@H]24)OC1=O | > 100 | > 100 | > 100 | > 100 | > 100 | > 100 | > 100 | > 100 | > 100 | – |
| CSc1c(C#N)c(N)n(-c2ccc(C)cc2)c(=O)c1C#N | – | > 100 | – | > 100 | > 100 | > 100 | > 100 | > 100 | – | > 100 |
| CCc1c[n+]([O-])c(C)cc1[N+](=O)[O-] | 47.3 | > 100 | > 100 | > 100 | > 100 | > 100 | – | > 100 | > 100 | > 100 |
| CC1(C)C2CC(=O)C1(C)C(O)C2Br (stereo unspecified) | > 100 | > 100 | > 100 | > 100 | > 100 | > 100 | – | > 100 | > 100 | – |
| CCN1CCCC(NCc2c3ccccc3c(CNC3CCCN(CC)C3)c3ccccc23)C1 (stereo unspecified) | – | 31.9 | > 63.4 | – | 35.9 | 26.8 | 18 | 38.4 | 14.7 | 22.3 |
| CCOC(=O)c1c(-c2ccccc2)c(-c2ccccc2)cn1C | > 10 | > 10 | – | > 10 | > 10 | > 10 | > 10 | > 10 | > 10 | – |
| S=C(/N=c1\sc(Nc2ccc(Cl)cc2)nc2sc3c(c12)CCN(N1CCc2c(sc4nc(Nc5ccc(Cl)cc5)s/c(=N\C(=S)Nc5ccc(Cl)cc5)c24)C1)C3)Nc1ccc(Cl)cc1 | > 100 | – | > 100 | > 100 | > 100 | 48 | – | > 100 | > 100 | – |
| C(=Nc1ccc(-c2nc3ccccc3o2)cc1)c1ccco1 | > 100 | – | – | – | > 100 | – | > 100 | – | – | > 100 |
| COc1ccc(S(=O)(=O)N2C(=O)CCC2C(=O)NN)cc1 (stereo unspecified) | > 100 | > 100 | > 100 | > 100 | > 100 | > 100 | > 100 | – | > 100 | > 100 |
| Clc1ccc(CSCCc2ccncc2)cc1Cl | 66 | 50.9 | 50.2 | > 100 | 57 | 29.6 | 98.7 | 49.5 | 41.8 | – |
| Cc1ccc([N+](=O)[O-])cc1N=NC(=O)NNc1cc([N+](=O)[O-])ccc1C | – | 49.3 | > 100 | – | – | 33.2 | – | – | 40.9 | – |
| C=C1c2cc3c(cc2CC12Cc1cc4c(cc1C2=O)CCC4)CCC3 (stereo unspecified) | > 100 | – | > 100 | > 100 | > 100 | – | > 100 | > 100 | > 100 | > 100 |
| CN(Cc1ccccc1)c1cc(=O)n(C)c(=O)[nH]1 | > 100 | – | – | > 100 | – | > 100 | > 100 | > 100 | > 100 | > 100 |
| NCCCN1CCN(CCCNc2ccc3nnn4c5ccccc5c(=O)c2c34)CC1 | 73.7 | – | > 100 | > 100 | 41.1 | 33.7 | 33.1 | 75 | 45.2 | 26.8 |
